Test [1] in a line: Selectivity interaction (Kinase panel (KiNativ target engagement assay in Jurkat cells)) EUB0001635a STLK6. To be noted: Selectivity number of off-targets 0; Selectivity number of targets 233; Source Knowledge https://www.sciencedirect.com/science/article/pii/S2451945619300674?via%3Dihub; at 1 µM.
For test [2], the target named is Interferon-induced, double-stranded RNA-activated protein kinase (Homo sapiens) (UniProt P19525). The experiment in a line: Selectivity interaction (Kinase panel (KiNativ target engagement assay in Jurkat cells)) EUB0001635a EIF2AK2. It counts as cell-based. To be noted: Selectivity number of off-targets 0.0, Selectivity number of targets 233.0, Source Knowledge https://www.sciencedirect.com/science/article/pii/S2451945619300674?via%3Dihub, at 1 µM.

For test [3], the target named is Mitogen-activated protein kinase kinase kinase 1 (Homo sapiens, UniProt Q13233). The experiment in a line: Selectivity interaction (Ambit KINOMEscan and KiNATiv profiling in Jurkat cells) EUB0000090b MAP3K1. It counts as cell-based. To be noted: at 1 µM.
Chain of Mitogen-activated protein kinase kinase kinase 1 (Q13233 whole entry): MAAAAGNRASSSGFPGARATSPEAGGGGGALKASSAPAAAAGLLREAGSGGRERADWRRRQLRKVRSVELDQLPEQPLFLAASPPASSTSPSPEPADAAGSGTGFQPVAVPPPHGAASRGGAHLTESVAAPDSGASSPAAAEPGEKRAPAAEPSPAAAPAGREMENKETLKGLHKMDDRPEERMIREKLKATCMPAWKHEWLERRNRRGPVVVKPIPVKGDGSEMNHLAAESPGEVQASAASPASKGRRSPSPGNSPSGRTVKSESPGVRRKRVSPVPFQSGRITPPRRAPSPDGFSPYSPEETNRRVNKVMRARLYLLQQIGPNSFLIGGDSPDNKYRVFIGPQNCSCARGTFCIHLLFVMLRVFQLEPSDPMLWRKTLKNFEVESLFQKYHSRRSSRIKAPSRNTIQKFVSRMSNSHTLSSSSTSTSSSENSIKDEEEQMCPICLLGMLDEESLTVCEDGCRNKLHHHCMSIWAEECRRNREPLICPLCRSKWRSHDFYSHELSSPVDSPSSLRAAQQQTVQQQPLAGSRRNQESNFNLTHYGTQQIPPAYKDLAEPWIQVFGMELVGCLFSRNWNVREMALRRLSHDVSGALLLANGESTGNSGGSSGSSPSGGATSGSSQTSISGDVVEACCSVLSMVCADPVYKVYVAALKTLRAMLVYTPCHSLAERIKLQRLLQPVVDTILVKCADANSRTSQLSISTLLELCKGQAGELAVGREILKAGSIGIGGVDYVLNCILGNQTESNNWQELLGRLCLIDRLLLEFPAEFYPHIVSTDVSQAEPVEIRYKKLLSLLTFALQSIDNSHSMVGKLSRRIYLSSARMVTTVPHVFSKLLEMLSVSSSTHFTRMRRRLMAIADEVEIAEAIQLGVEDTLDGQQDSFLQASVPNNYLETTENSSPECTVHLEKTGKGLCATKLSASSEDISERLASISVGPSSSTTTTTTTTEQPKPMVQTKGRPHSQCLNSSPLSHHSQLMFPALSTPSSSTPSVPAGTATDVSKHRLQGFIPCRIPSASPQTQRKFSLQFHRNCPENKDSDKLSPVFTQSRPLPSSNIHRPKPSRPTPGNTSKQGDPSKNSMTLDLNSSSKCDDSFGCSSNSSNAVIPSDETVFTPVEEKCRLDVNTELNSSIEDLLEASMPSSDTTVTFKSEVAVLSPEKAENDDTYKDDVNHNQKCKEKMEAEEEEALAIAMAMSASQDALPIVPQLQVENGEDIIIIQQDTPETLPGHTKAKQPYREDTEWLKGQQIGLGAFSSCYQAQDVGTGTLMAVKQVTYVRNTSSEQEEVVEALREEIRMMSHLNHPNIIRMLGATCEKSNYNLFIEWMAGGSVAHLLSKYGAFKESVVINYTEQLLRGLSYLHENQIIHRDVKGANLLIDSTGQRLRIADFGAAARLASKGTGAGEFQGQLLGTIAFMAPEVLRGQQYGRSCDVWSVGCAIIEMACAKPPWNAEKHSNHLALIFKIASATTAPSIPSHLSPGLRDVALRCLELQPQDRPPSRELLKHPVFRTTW
Test [4] addresses Serine/threonine-protein kinase 26 (Homo sapiens, UniProt Q9P289). The experiment in a line: Selectivity interaction (SelectScreen profiling (Invitrogen)) EUB0000607a STK26. To be noted: at 2 µM.
Test [5] concerns the target MAP kinase-activated protein kinase 2 (Homo sapiens, UniProt P49137). In words: Selectivity interaction (KinomeScan (DiscoverX)) EUB0000666a MAPKAPK2. To be noted: at 10 µM.
In test [6] the target is Vascular endothelial growth factor receptor 3 (Homo sapiens, UniProt P35916). The experiment in a line: Selectivity interaction (KinomeScan (DiscoverX)) EUB0000655a FLT4. To be noted: at 10 µM.
The test system of test [7] is Serine/threonine-protein kinase B-raf (Homo sapiens), P15056 [V600E]. To be noted: at 10 µM.
Chain of Serine/threonine-protein kinase B-raf (Homo sapiens), P15056 [V600E] (P15056 whole entry V600E): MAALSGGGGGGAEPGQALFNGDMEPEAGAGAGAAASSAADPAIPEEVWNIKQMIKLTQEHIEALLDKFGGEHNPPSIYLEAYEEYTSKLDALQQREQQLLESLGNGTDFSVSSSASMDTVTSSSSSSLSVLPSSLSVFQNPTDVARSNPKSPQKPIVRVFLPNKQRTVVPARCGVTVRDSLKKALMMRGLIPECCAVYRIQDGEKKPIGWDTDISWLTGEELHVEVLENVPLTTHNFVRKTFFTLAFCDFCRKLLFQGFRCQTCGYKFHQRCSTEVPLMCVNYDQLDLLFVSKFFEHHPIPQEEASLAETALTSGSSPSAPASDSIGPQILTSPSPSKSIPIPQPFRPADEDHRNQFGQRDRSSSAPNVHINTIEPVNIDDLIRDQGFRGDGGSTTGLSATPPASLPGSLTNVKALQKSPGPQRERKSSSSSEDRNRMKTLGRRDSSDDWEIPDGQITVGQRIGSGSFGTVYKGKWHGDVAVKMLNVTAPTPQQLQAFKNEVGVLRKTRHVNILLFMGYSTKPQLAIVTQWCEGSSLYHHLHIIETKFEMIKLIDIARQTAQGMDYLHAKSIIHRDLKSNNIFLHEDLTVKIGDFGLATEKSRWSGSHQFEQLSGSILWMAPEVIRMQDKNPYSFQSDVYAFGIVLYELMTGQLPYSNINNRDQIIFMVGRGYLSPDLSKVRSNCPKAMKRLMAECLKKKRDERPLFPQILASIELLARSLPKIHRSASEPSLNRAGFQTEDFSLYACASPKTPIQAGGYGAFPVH
Test [8] concerns the target T1, Tyrosine-protein kinase JAK3 (Homo sapiens) (UniProt P52333).
T1 sequence (whole entry): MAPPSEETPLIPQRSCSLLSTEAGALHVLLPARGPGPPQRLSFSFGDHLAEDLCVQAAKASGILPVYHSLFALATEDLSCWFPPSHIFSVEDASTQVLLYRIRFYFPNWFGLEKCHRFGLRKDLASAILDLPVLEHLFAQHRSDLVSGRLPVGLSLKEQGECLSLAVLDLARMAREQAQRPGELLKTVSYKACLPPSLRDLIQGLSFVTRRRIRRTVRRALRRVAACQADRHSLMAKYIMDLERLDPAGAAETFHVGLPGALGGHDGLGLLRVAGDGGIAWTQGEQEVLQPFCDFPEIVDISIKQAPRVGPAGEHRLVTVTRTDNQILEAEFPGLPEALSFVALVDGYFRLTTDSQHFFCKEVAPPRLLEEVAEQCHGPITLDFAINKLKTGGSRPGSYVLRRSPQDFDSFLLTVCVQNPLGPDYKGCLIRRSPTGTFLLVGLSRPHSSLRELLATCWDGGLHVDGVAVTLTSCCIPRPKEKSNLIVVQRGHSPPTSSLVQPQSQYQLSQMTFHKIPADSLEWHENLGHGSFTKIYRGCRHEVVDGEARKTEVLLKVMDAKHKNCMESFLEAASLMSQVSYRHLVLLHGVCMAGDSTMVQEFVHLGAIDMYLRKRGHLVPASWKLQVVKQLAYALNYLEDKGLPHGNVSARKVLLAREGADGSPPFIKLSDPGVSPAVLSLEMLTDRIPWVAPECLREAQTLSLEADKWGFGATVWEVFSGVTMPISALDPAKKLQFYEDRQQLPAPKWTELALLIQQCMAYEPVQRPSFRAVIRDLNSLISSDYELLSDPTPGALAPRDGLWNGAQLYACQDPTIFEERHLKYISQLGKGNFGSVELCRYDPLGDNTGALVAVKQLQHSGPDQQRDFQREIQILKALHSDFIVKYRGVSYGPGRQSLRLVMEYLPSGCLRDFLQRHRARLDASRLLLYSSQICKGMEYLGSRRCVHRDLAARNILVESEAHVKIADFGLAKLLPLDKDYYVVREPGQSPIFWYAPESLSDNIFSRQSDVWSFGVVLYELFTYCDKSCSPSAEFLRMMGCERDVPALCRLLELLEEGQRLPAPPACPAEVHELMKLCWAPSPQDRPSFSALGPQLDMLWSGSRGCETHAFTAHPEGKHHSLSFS
In words: Selectivity interaction (KinomeScan (DiscoverX)) EUB0000655a JAK3. To be noted: at 10 µM.

The target in test [9] is T2, Dual specificity mitogen-activated protein kinase kinase 3 (Homo sapiens) (UniProt P46734).
T2 sequence (whole entry): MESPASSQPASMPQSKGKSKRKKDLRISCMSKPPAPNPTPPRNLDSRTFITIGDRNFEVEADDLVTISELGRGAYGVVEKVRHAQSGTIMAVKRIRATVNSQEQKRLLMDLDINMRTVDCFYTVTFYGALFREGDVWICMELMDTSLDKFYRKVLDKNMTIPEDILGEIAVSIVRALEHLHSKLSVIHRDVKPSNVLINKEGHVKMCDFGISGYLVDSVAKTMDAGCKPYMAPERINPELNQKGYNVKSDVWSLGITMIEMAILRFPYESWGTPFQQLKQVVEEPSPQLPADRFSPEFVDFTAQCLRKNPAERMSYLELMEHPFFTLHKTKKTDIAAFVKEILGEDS
In words: Selectivity interaction (KinomeScan (DiscoverX)) EUB0001079a MAP2K3. To be noted: at 1 µM.

Test [10] concerns the target Tyrosine-protein kinase Fyn (Homo sapiens) (UniProt P06241). The experiment in a line: Selectivity interaction (ActivX KiNativ screen (ex vivo kinase selectivity in human PBMCs)) EUB0001619a FYN. It counts as cell-based. To be noted: PBMC, at 1 µM.
The target of test [11] is Tyrosine-protein kinase JAK1 (Homo sapiens, UniProt P23458). The experiment in a line: Selectivity interaction (ActivX KiNativ screen (kinase selectivity in THP-1 cell lysates)) EUB0000639a JAK1. To be noted: lysate, at 1 µM. In kind it is subcellular.
Test [12] deals with Mitogen-activated protein kinase 10 (Homo sapiens, UniProt P53779). In words: Selectivity interaction (KinomeScan (DiscoverX)) EUB0000695a MAPK10. To be noted: at 100 nM.
Chain of Mitogen-activated protein kinase 10 (P53779 whole entry): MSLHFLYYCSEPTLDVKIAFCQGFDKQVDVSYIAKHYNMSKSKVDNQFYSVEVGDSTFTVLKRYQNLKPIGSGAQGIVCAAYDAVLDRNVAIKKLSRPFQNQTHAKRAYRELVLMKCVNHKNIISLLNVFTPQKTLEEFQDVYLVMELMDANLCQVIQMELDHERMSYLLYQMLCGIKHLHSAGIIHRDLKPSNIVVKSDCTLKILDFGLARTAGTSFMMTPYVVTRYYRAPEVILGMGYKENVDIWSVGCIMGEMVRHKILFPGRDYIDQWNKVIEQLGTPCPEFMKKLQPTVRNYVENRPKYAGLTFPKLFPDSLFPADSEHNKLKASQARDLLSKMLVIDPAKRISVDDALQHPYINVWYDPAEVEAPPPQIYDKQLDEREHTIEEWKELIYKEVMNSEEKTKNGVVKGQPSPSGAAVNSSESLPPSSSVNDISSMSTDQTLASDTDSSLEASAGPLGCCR
Test [13] is described as follows: Selectivity interaction (Eurofins CEREP Diversity Profile (receptors and ion channels)) EUB0000279b NPY. To be noted: at 10 µM.
For test [14], the target named is Bromodomain adjacent to zinc finger domain protein 2B (Homo sapiens) (UniProt Q9UIF8). The experiment in a line: Selectivity interaction (Bromodomain panel (DSF asssay)) EUB0000270b BAZ2B.
The target in test [15] is WD repeat-containing protein 48 (Homo sapiens) (UniProt Q8TAF3). In words: Selectivity interaction (PWWP, WD40, and Tudor domain panel (DSLS measurements, literature)) EUB0000270b WDR48.
Chain of WD repeat-containing protein 48 (Homo sapiens) (Q8TAF3 whole entry, the tested form may be a part): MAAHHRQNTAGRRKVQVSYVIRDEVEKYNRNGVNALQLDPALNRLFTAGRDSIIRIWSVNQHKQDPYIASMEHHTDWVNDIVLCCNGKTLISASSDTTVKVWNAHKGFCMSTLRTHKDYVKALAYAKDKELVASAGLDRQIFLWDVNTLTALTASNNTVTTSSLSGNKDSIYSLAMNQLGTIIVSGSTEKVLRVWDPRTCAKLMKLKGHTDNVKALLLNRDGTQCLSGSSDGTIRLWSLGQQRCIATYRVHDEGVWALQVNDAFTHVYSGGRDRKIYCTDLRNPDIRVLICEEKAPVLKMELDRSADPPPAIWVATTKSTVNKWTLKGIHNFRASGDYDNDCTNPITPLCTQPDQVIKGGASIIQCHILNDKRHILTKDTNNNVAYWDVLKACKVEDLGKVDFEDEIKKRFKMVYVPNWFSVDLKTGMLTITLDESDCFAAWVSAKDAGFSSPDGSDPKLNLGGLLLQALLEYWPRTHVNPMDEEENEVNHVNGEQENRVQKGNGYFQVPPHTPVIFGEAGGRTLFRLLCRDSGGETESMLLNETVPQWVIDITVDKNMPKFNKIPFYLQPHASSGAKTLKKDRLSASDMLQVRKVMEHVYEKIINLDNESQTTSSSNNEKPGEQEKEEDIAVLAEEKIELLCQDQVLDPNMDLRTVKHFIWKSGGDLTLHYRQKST
Test [16] concerns the target Serine/threonine-protein kinase 24 (Homo sapiens) (UniProt Q9Y6E0). The experiment in a line: Selectivity interaction (Kinase panel (DSF assay)) EUB0001559a STK24. On the technique in general: In DSF a fluorescence change marks the thermal transition of the protein.
Test [17] concerns the target LIM domain kinase 1 (Homo sapiens) (UniProt P53667). The experiment in a line: Selectivity interaction (KinomeScan (DiscoverX)) EUB0000045b LIMK1.
The target in test [18] is Tyrosine-protein kinase CSK (Homo sapiens) (UniProt P41240). The experiment in a line: Selectivity interaction (Upstate Kinase Profiler service (Millipore)) EUB0000056c CSK. To be noted: at 1 µM.

Structures are written as SMILES.

Consider 14 compounds from ChEMBL document CHEMBL5465560, “Selectivity Literature for EUbOPEN Chemogenomic Library” (2024).

Chain of LIM domain kinase 1 (Homo sapiens) (P53667 whole entry, looked up, the tested form may be a part): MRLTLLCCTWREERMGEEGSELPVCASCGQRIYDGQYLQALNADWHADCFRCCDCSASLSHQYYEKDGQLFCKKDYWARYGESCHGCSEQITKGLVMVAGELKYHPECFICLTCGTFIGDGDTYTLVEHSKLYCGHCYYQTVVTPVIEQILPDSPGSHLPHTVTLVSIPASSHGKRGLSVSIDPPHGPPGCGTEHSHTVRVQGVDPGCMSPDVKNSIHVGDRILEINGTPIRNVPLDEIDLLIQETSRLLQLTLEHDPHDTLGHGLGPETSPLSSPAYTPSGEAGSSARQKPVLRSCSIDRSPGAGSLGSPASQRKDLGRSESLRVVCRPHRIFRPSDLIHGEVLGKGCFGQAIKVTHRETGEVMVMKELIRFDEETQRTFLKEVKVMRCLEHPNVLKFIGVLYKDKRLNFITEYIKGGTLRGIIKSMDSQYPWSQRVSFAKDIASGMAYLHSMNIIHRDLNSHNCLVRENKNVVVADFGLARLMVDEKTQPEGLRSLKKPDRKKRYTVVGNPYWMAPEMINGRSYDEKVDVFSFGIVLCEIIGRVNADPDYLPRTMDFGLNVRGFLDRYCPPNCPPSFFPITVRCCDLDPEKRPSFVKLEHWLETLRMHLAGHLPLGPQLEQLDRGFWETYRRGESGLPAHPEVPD
Chain of Serine/threonine-protein kinase 26 (Q9P289 2-416 limits assumed): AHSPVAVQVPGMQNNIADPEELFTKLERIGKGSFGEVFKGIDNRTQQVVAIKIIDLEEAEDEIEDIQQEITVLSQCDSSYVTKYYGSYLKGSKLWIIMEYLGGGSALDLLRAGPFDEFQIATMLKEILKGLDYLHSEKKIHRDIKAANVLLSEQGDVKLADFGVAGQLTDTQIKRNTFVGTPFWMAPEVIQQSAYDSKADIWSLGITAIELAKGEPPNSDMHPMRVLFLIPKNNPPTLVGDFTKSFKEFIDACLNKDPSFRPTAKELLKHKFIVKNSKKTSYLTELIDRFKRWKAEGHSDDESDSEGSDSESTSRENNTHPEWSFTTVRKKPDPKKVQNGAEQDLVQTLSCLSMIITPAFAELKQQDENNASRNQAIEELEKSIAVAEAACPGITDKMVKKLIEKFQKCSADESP
Chain of MAP kinase-activated protein kinase 2 (P49137 whole entry, looked up): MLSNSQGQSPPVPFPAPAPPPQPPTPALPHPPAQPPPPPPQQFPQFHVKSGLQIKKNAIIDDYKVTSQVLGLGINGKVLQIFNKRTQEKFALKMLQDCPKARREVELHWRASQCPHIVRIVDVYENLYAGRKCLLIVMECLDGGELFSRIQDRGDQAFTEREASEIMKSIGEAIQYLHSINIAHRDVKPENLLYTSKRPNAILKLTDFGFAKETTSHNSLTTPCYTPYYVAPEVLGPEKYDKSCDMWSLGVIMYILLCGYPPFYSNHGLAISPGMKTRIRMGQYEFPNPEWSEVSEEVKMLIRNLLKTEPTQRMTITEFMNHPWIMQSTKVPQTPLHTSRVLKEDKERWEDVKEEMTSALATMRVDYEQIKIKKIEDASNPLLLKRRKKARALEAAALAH

For `C=CC(=O)Nc1ccc(C(=O)Nc2[nH]nc3c2CN(C(=O)N[C@H](CN(C)C)c2ccccc2)C3(C)C)cc1`, the “% of engagement” value in [1] was -0.5%; in test [2], -0.6%.

Take `CN(C)C/C=C/C(=O)Nc1ccc(C(=O)N2CCCC(Nc3ncc(Cl)c(-c4c[nH]c5ccccc45)n3)C2)cc1` (centres undefined): the % of control in test [3] worked out at 82%.

With `CNC(=O)Nc1ccc(-c2nc(N3CC4CCC(C3)O4)c3cnn(C4CCC5(CC4)OCCO5)c3n2)cc1`, in test [4], the % of inhibition is 7%.

In test [5], `O=C(NOC[C@H](O)CO)c1ccc(F)c(F)c1Nc1ccc(I)cc1F` registered a % of control of 84%.

Turning to `CN(C)CCOc1ccc(-c2nc(-c3ccncc3)c(-c3ccc4c(c3)CC/C4=N\O)[nH]2)cc1`, the % of control is 100% in test [6], 0% in test [7] and 93% in [8].

In turn, `Nc1cnc(N2CCc3cc(S(=O)(=O)Nc4c(F)cc(Cl)cc4F)cc(N4CCCC4=O)c32)nc1` [TP-020n] yielded a % of control in [9] of 100%.

`N#Cc1cccc(-c2c[nH]c3ncnc(N4CCOCC4)c23)c1`: the % of inhibition in [10] was -9%.

For `CC[C@@H]1[C@H](F)C(=O)N[C@@H]1COc1nccc2cc(C(N)=O)c(OC)cc12` [ZIMLOVISERTIB], in test [11], the % of inhibition was found to be 3.8%.

Take `Cc1cc(F)c(C(=O)Nc2cccc(-c3nncn3C(C)C)n2)cc1-n1cnc(C2CC2)c1`: the % of control in [12] turned out to be 71%.

For `CC(=O)c1cc(-c2ccccc2OCC2CC2)c2ncccn12`, the % of control in [13] was determined as 123%.

In the case of `Cc1cc(CN)cc(C)c1-c1ncn(C)c1-c1cncn1C`, the dTM in test [14] was -0.9 K. The dTagg in test [15] amounted to 0.1 K.

`CN(C(=O)c1cnn2cccnc12)c1cc2c(cc1N1CCOCC1)C(=O)N(C[C@@H](F)C(C)(C)O)C2` returned a dTM in [16] of -0.3 K.

With `C=CC(=O)Nc1cc(-n2c(=O)ccc3cnc4ccc(-c5ccc(NS(C)(=O)=O)cc5)cc4c32)ccc1C`, the % of control in test [17] (at 1 µM) is 100%; in test [17] (at 10 µM), 95%.

Take `Cc1ccc(-c2ccc3c(ccc4sc5c(c43)NC[C@@H](C)NC5=O)n2)cn1`: the % of inhibition in [18] worked out at 5%.
